In one assay the test system is T-47D cells. The note with it: ORG 2058, same conditions, reference (3); cited from earlier work.
The next assay concerns EDD mRNA. As to the kind of experiment: Northern analysis of EDD mRNA in progestin-treated T-47D cells. In kind it is cell-based, human. How it is done: (§1) The sources and maintenance of the human breast cancer and normal cell lines used were as described previously (12, 22), as were tissue culture experiments (12). Briefly, progestin (ORG 2058, 10 nM) and/or cycloheximide (20 μg/ml) or actinomycin D (5 μg/ml) was added to the medium and control flasks received the same volume of vehicle alone. To obtain RNA for differential display, cells were grown in insulin-supplemented serum-free medium and treated for 3 h with ORG 2058 or ethanol vehicle. Subsequent progestin stimulation experiments were carried out in medium containing 5% charcoal-stripped fetal calf serum without insulin.
Cells harvested from duplicate 150 cm^2 flasks were pooled, RNA extracted by a guanidinium-isothiocyanate-cesium chloride procedure and Northern analysis was performed as previously described with 20 μg of total RNA per lane (3, 23). The membranes were hybridized overnight (50° C.) with probes labelled with [a-^32P]dCTP (Amersham Australia Pty Ltd) using a Prime-a-Gene labelling kit (Promega Corp., Sydney, Australia). The membranes were washed at a highest stringency of 0.2 ¥ SSC (30 mM NaCl, 3 minN sodium citrate [pH 7.0])/1% sodium dodecyl sulfate at 65° C. and exposed to Kodak X-OMAT or BIOMAX film at −70° C. Human multiple tissue Northern blots or RNA Master blot (CLONTECH Laboratories Inc., Palo Alto, Calif.) were hybridized under conditions recommended by the manufacturer. The MRNA abundance was quantitated by densitometric analysis of autoradiographs using Molecular
Dynamics Densitometer and software (Molecular Dynamics, Sunnyvale, Calif.). The accuracy of loading was estimated by re-hybridizing membranes with a [g-^32P]ATP end-labelled oligonucleotide complementary to 18S rRNA (24, 25).

The next assay has as its system EDD. Briefly: Differential display RT-PCR of T-47D cells treated with ORG 2058. Type of assay: cell-based, human. The conditions noted are these: ORG 2058 for 3 h. How it is done:
as §1
Differential display was carried out as previously described (11) using a Heiroglyph mRNA Profile Kit No. 1 (Genomyx Corporation, Foster City, Calif.) and recommended protocol. First strand cDNA synthesis was carried out in 96-well format 0.2 ml thin walled tubes. Typically 200 ng total RNA from T-47D cells treated with the synthetic progestin ORG 2058 for 3 h or from control T-47D cells was reverse transcribed with Expand Reverse Transcriptase enzyme (Boehringer Mannheim Pty Ltd, Castle Hill, Australia) following annealing with 4 pmol anchored primer (5′[…]12AC (SEQ ID NO:6)). […] The PCR products were denatured and separated on a 4.5% denaturing polyacrylamide gel at 800 v for 16 h using the Genomyx Long Read Sequencing System reagents and apparatus. […]

In assay [1] the target is T1, GST-ubiquitin fusion protein (Homo sapiens, UniProt P0CG47).
T1 construct: purified GST-ubiquitin fusion protein
As to the kind of experiment: Ubiquitin-binding assay (thiol ester formation). In kind it is biochemical. The conditions noted are these: in vitro translated 35S-labelled protein, absence of DTT; abolished by 100 mM DTT.
Protocol: [^35S]-labelled in vitro translated truncated (˜100 kDa) or full length protein was tested for its ability to bind ubiquitin by incubating 5 μl translation reaction with or without 5 μg purified GST protein or GST-ubiquitin fusion protein for 10 min at 25° C. […] Reactions were terminated by incubating the mixtures in either SDS-sample buffer containing 100 mM DTT at 95° C. for 5 min or in SDS-sample buffer containing 4 M urea instead of DTT at 25° C. for 20 min. Samples were resolved by SDS-PAGE through 6% or 7% gels followed by drying and autoradiography.

Entries after “also recorded” stand apart in the source; their conditions may differ. Numbered stars: 1 amine (or outer) side, 2 acyl side, 3 side chain; on linkers, the order of the positions; unused ones are H or OH. Bridge positions count the residues as written; N and C are the ends. Square brackets hold non-standard residues; d marks the D form. Peptide text beside a SMILES is read from it. I, II: the chains in the order shown. Actinocin(9to1) = Cc1c2oc3c(C)ccc(C(=O)[*:1])c3nc-2c(C(=O)[*:2])c(N)c1=O; NMeV = CN[C@H](C(=O)O)C(C)C; Sar = CNCC(=O)O

As for `CCC1CC2C3CCC4=CC(=O)CCC4C3CCC2(C)C1C(=O)CO` (stereo not drawn) [ORG 2058, 16a-ethyl-21-hydroxy-19-norpregn-4-en-3,20-dione], in the assay with T-47D cells, the “time of increase in the S phase fraction” value was 12 to 14 h. In addition, in the assay on EDD mRNA (progestin (ORG 2058), observed at 6 h, transient), the “maximal EDD mRNA levels above control” value is recorded as 3 to 4 fold. The “abundance of EDD DD-PCR product, treated versus control” value with EDD is “more abundant in treated samples than in control samples; also recorded: present at a higher level”.

For the molecule `Cc1c2oc3c(C)ccc(C(=O)N[C@@H]4C(=O)N[C@H](C(C)C)C(=O)N5CCC[C@H]5C(=O)N(C)CC(=O)N(C)[C@@H](C(C)C)C(=O)O[C@@H]4C)c3nc-2c(C(=O)N[C@@H]2C(=O)N[C@H](C(C)C)C(=O)N3CCC[C@H]3C(=O)N(C)CC(=O)N(C)[C@@H](C(C)C)C(=O)O[C@@H]2C)c(N)c1=O` [actinomycin D, Actinomycin D] (I: T[dV]P[Sar][NMeV] / II: T[dV]P[Sar][NMeV]; ester I:1-I:C, II:1-II:C; linker I:N-II:N via Actinocin(9to1)), the “effect on ORG 2058 induction of EDD mRNA levels” value with EDD mRNA (10 nM ORG 2058 with actinomycin D (5 μg/ml), 3 h) is listed as “blocked”.

As for `C[C@@H]1C[C@@H]([C@H](O)CC2CC(=O)NC(=O)C2)C(=O)[C@@H](C)C1` [cycloheximide, Cycloheximide], in the assay on EDD mRNA (10 nM ORG 2058 with cycloheximide (20 μg/ml), 1 h), the “effect on ORG 2058 induction of EDD mRNA levels” value is “prevented”.

B1: truncated EDD: 890 amino acid truncated EDD protein, aa 1910 to aa 2799, carboxyl terminus with HECT domain (protein)
chain: MMSARGDFLNYALSLMRSHNDEHSDVLPVLDVCSLKHVAYVFQALIYWIKAMNQQTTLDTPQLERKRTRELLELGIDNEDSEHENDDDTNQSATLNDKDDDSLPAETGQNHPFFRRSDSMTFLGCIPPNPFEVPLAEAIPLADQPHLLQPNARKEDLFGRPSQGLYSSSASSGKCLMEVTVDRNCLEVLPTKMSYAANLKNVMNMQNRQKKEGEEQPVLPEETESSKPGPSAHDLAAQLKSSLLAEIGLTESEGPPLTSFRPQCSFMGMVISHDMLLGRWRLSLELFGRVFMEDVGAEPGSILTELGGFEVKESKFRREMEKLRNQQSRDLSLEVDRDRDLLIQQTMRQLNNHFGRRCATTPMAVHRVKVTFKDEPGEGSGVARSFYTAIAQAFLSNEKLPNLECIQNANKGTHTSLMQRLRNRGERDREREREREMRRSSGLRAGSRRDRDRDFRRQLSIDTRPFRPASEGNPSDDPEPLPAHRQALGERLYPRVQAMQPAFASKITGMLLELSPAQLLLLLASEDSLRARVDEAMELIIAHGRENGADSILDLGLVDSSEKVQQENRKRHGSSRSVVDMDLDDTDDGDDNAPLFYQPGKRGFYTPRPGKNTEARLNCFRNIGRILGLCLLQNELCPITLNRHVIKVLLGRKVNWHDFAFFDPVMYESLRQLILASQSSDADAVFSAMDLAFAIDLCKEEGGGQVELIPNGVNIPVTPQNVYEYVRKYAEHRMLVVAEQPLHAMRKGLLDVLPKNSLEDLTAEDFRLLVNGCGEVNVQMLISFTSFNDESGENAEKLLQFKRWFWSIVEKMSMTERQDLVYFWTSSPSLPASEEGFQPMPSITIRPPDDQHLPTANTCISRLYVPLYSSKQILKQKLLLAIKTKNFGFV
With B1, in assay [1], the “formation of GST-ubiquitin / ubiquitin thioester conjugate” value was “an additional higher molecular mass protein band was observed”.

The values are drawn from patent US7105652B2, “Human tumor suppressor gene” (Garvan Institute of Medical Research, priority 1997, dated 2006).
